We go through 10 compounds from ChEMBL document CHEMBL3232991, “New polyfunctional imidazo[4,5-C]pyridine motifs: synthesis, crystal studies, docking studies and antimicrobial evaluation” (Eur J Med Chem, 2014).

For test [1], the system named is Saccharomyces cerevisiae. Description: Antifungal activity against Saccharomyces cerevisiae NCIM 3044 assessed as diameter of growth inhibition zone at 500 ug/ml after 4 days by agar disc diffusion method. Type of test: functional. Background: In agar diffusion tests the substance spreads into inoculated agar from a disc or well.
Test [2] concerns Candida albicans. Description: Antifungal activity against Candida albicans MTCC 183 assessed as diameter of growth inhibition zone at 1000 ug/ml after 4 days by agar disc diffusion method. Type of test: functional. Particulars: for zone of inhibition at 1000 µg/mL: MTCC 183, 96 h, read-out: DIZ.
Test [3] deals with Staphylococcus aureus. The experiment in a line: Antibacterial activity against Staphylococcus aureus MTCC 4102 assessed as diameter of growth inhibition zone at 500 ug/ml after 20 hrs by agar disc diffusion method. Type of test: functional.
Test [4] deals with Escherichia coli. Description: Antibacterial activity against Escherichia coli NCIM 2931 assessed as diameter of growth inhibition zone at 500 ug/ml after 20 hrs by agar disc diffusion method. Type of test: functional. Particulars: for zone of inhibition at 500 µg/mL: NCIM 2931, 20 h, read-out: DIZ.
Test [5] has as its system Saccharomyces cerevisiae. Description: Antifungal activity against Saccharomyces cerevisiae NCIM 3044 assessed as diameter of growth inhibition zone at 1000 ug/ml after 4 days by agar disc diffusion method. Type of test: functional.
Test [6] concerns Escherichia coli. The experiment in a line: Antibacterial activity against Escherichia coli NCIM 2931 assessed as diameter of growth inhibition zone at 1000 ug/ml after 20 hrs by agar disc diffusion method. Type of test: functional. Particulars: for zone of inhibition at 1000 µg/mL: NCIM 2931, 20 h, read-out: DIZ.
The subject of test [7] is Candida albicans. The experiment in a line: Antifungal activity against Candida albicans MTCC 183 assessed as diameter of growth inhibition zone at 500 ug/ml after 4 days by agar disc diffusion method. Type of test: functional. Particulars: for zone of inhibition at 500 µg/mL: MTCC 183, 96 h, read-out: DIZ.
Test [8] concerns Pseudomonas aeruginosa. Description: Antibacterial activity against Pseudomonas aeruginosa MTCC 4727 assessed as diameter of growth inhibition zone at 500 ug/ml after 20 hrs by agar disc diffusion method. Type of test: functional. Particulars: for zone of inhibition at 500 µg/mL: MTCC 4727, 20 h, read-out: DIZ.
Test [9] relates to Staphylococcus aureus. Description: Antibacterial activity against Staphylococcus aureus MTCC 4102 assessed as diameter of growth inhibition zone at 1000 ug/ml after 20 hrs by agar disc diffusion method. Type of test: functional.
The test system of test [10] is Pseudomonas aeruginosa. Description: Antibacterial activity against Pseudomonas aeruginosa MTCC 4727 assessed as diameter of growth inhibition zone at 1000 ug/ml after 20 hrs by agar disc diffusion method. Type of test: functional. Particulars: for zone of inhibition at 1000 µg/mL: MTCC 4727, 20 h, read-out: DIZ.
The subject of test [11] is Candida albicans. Description: Antifungal activity against Candida albicans MTCC 183 assessed as assessed as growth inhibition after 48 hrs by broth microdilution method. Type of test: functional, organism-based. Particulars: MTCC 183, 48 h. (In general: Broth dilution looks for growth in wells or tubes with falling amounts of substance.)
Test [12] has as its system Bacillus cereus. Description: Antibacterial activity against Bacillus cereus NCIM 2155 assessed as diameter of growth inhibition zone at 500 ug/ml after 20 hrs by agar disc diffusion method. Type of test: functional. Particulars: for zone of inhibition at 500 µg/mL: NCIM 2155, 20 h, read-out: DIZ.
Test [13] relates to Bacillus cereus. Description: Antibacterial activity against Bacillus cereus NCIM 2155 assessed as diameter of growth inhibition zone at 1000 ug/ml after 20 hrs by agar disc diffusion method. Particulars: for zone of inhibition at 1000 µg/mL: NCIM 2155, 20 h, read-out: DIZ. Type of test: functional.
The subject of test [14] is Saccharomyces cerevisiae. Description: Antifungal activity against Saccharomyces cerevisiae NCIM 3044 assessed as growth inhibition after 48 hrs by broth microdilution method. Type of test: functional, organism-based. Particulars: NCIM 3044, 48 h.

Molecules are shown by their SMILES. In brackets after ≈: the same amount, converted by molar mass. Activity calls are given as the source filed them. No cut-off for these calls is given here.

One may read the IC50 as the point on the concentration scale where inhibition reaches its midpoint. As usually defined, the MIC is the lowest concentration found to suppress growth.

In the case of `Cc1cccc(Cc2nc3c(N4CCCC(C#N)C4)ncc(-c4cccc(F)c4)c3[nH]2)c1` (stereo unspecified), the “diameter of the inhibition zone (DIZ)” value in the test with Saccharomyces cerevisiae [1], with Staphylococcus aureus [3], with Escherichia coli [4], in the test on Saccharomyces cerevisiae [5], with Escherichia coli [6] and with Staphylococcus aureus [9] was “inactive” in each case. Further, the “diameter of the inhibition zone (DIZ)” value in the test with Bacillus cereus [12] and with Bacillus cereus [13] was “inactive” in each case. The zone of inhibition at 1000 µg/mL came out at 15 mm in the test on Candida albicans [2] and 13 mm with Pseudomonas aeruginosa [10]. The values for the zone of inhibition at 500 µg/mL with Candida albicans [7] and in the test with Pseudomonas aeruginosa [8] were 6.8 mm and 6.2 mm, respectively. In addition, the IC50 in the test on Candida albicans [11] was found to be 206 µg/mL (≈ 485 µM). Besides, the MIC with Candida albicans [11] is 404 µg/mL (≈ 950 µM).

With `CCC(CC)c1nc2c(N3CCCC(C#N)C3)ncc(-c3cccc(F)c3)c2[nH]1` (stereo unspecified), the “diameter of the inhibition zone (DIZ)” value in the test on Saccharomyces cerevisiae [1], with Candida albicans [2], in the test with Staphylococcus aureus [3], with Escherichia coli [4], in the test on Saccharomyces cerevisiae [5] and with Escherichia coli [6] was “inactive” each time. For the same compound, the “diameter of the inhibition zone (DIZ)” value in the test on Candida albicans [7], with Pseudomonas aeruginosa [8], in the test on Staphylococcus aureus [9], in the test with Pseudomonas aeruginosa [10], in the test on Bacillus cereus [12] and with Bacillus cereus [13] was “inactive” throughout.

As for `N#CC1CCCN(c2ncc(-c3cccc(F)c3)c3[nH]c(COc4ccccc4)nc23)C1` (stereo unspecified), the IC50 in the test with Saccharomyces cerevisiae [14] worked out at 192 µg/mL (≈ 449 µM). Moreover, the MIC with Saccharomyces cerevisiae [14] turned out to be 384 µg/mL (≈ 898 µM). Moreover, the zone of inhibition at 500 µg/mL with Saccharomyces cerevisiae [1] (NCIM 3044, 96 h, read-out: DIZ) was 8.7 mm; with Bacillus cereus [12], 2.8 mm. Moreover, the “diameter of the inhibition zone (DIZ)” value in the test with Candida albicans [2], in the test on Staphylococcus aureus [3], in the test on Escherichia coli [4], in the test on Escherichia coli [6], in the test on Candida albicans [7] and in the test on Pseudomonas aeruginosa [8] was “inactive” throughout. Besides, the “diameter of the inhibition zone (DIZ)” value in the test with Staphylococcus aureus [9] and in the test with Pseudomonas aeruginosa [10] was “inactive” in each case. Besides, the zone of inhibition at 1000 µg/mL in the test on Saccharomyces cerevisiae [5] (NCIM 3044, 96 h, read-out: DIZ) was 19 mm; in the test with Bacillus cereus [13], 6 mm.

For `Cn1cc(-c2cnc(N3CCC(C#N)CC3)c3nc(CCc4ccccc4)[nH]c23)cn1`, the “diameter of the inhibition zone (DIZ)” value with Saccharomyces cerevisiae [1], with Saccharomyces cerevisiae [5], in the test on Pseudomonas aeruginosa [8], with Pseudomonas aeruginosa [10], in the test with Bacillus cereus [12] and in the test on Bacillus cereus [13] was “inactive” throughout. Further, the zone of inhibition at 1000 µg/mL with Candida albicans [2] was found to be 22 mm; in the test on Escherichia coli [6], 12 mm; in the test with Staphylococcus aureus [9] (MTCC 4102, 20 h, read-out: DIZ), 10 mm. Moreover, the zone of inhibition at 500 µg/mL was determined as 4.2 mm in the test on Staphylococcus aureus [3] (MTCC 4102, 20 h, read-out: DIZ); 5.4 mm with Escherichia coli [4]; 12.3 mm in the test on Candida albicans [7]. For the same compound, the IC50 in the test on Candida albicans [11] was 73.7 µg/mL (≈ 179 µM). The minimum inhibitory concentration (MIC) with Candida albicans [11] was found to be 195 µg/mL (≈ 475 µM).

For `CC(C)(C)Cc1nc2c(N3CCCC(C#N)C3)ncc(-c3cccc(F)c3)c2[nH]1` (stereo unspecified), the “diameter of the inhibition zone (DIZ)” value with Saccharomyces cerevisiae [1], with Candida albicans [2], in the test with Staphylococcus aureus [3], in the test on Escherichia coli [4], in the test with Saccharomyces cerevisiae [5] and in the test on Escherichia coli [6] was “inactive” each time. Besides, the “diameter of the inhibition zone (DIZ)” value with Candida albicans [7], in the test on Pseudomonas aeruginosa [8], in the test on Staphylococcus aureus [9], in the test with Pseudomonas aeruginosa [10], with Bacillus cereus [12] and in the test on Bacillus cereus [13] was “inactive” in each case.

For the compound `N#CC1CCCN(c2ncc(-c3cccc(F)c3)c3[nH]c(CCc4ccccc4)nc23)C1` (stereo unspecified), the “diameter of the inhibition zone (DIZ)” value in the test on Saccharomyces cerevisiae [1], in the test with Candida albicans [2], in the test on Staphylococcus aureus [3], with Escherichia coli [4], with Saccharomyces cerevisiae [5] and in the test on Escherichia coli [6] was “inactive” each time. The “diameter of the inhibition zone (DIZ)” value with Candida albicans [7], in the test with Pseudomonas aeruginosa [8], with Staphylococcus aureus [9] and with Pseudomonas aeruginosa [10] was “inactive” throughout. Besides, in the test on Bacillus cereus [12], the zone of inhibition at 500 µg/mL is 6.7 mm. Further, the zone of inhibition at 1000 µg/mL with Bacillus cereus [13] was 13 mm.

For the compound `N#CC1CCCN(c2ncc(-c3cccc(F)c3)c3[nH]c(C4CCCCC4)nc23)C1` (stereo unspecified), the “diameter of the inhibition zone (DIZ)” value in the test with Saccharomyces cerevisiae [1], with Candida albicans [2], in the test with Staphylococcus aureus [3], with Saccharomyces cerevisiae [5], in the test on Candida albicans [7] and in the test with Pseudomonas aeruginosa [8] was “inactive” throughout. Besides, the “diameter of the inhibition zone (DIZ)” value with Staphylococcus aureus [9], in the test on Pseudomonas aeruginosa [10], in the test with Bacillus cereus [12] and with Bacillus cereus [13] was “inactive” in each case. Moreover, the zone of inhibition at 500 µg/mL in the test with Escherichia coli [4] was 6 mm. The zone of inhibition at 1000 µg/mL in the test with Escherichia coli [6] is 12.5 mm.

In the case of `N#CC1CCCN(c2ncc(-c3cccc(F)c3)c3[nH]c(Cc4cc(F)ccc4F)nc23)C1` (stereo unspecified), the “diameter of the inhibition zone (DIZ)” value with Saccharomyces cerevisiae [1], in the test with Candida albicans [2], with Staphylococcus aureus [3], with Escherichia coli [4], with Saccharomyces cerevisiae [5] and in the test with Escherichia coli [6] was “inactive” each time. Further, the “diameter of the inhibition zone (DIZ)” value in the test on Candida albicans [7], in the test on Pseudomonas aeruginosa [8], in the test on Staphylococcus aureus [9], in the test with Pseudomonas aeruginosa [10], with Bacillus cereus [12] and in the test on Bacillus cereus [13] was “inactive” in each case.

On to `Cn1cc(-c2cnc(N3CCC(C#N)CC3)c3nc(Cc4ccc(Cl)cc4Cl)[nH]c23)cn1`, for which the “diameter of the inhibition zone (DIZ)” value in the test with Saccharomyces cerevisiae [1], in the test with Candida albicans [2], in the test on Staphylococcus aureus [3], with Escherichia coli [4], in the test on Saccharomyces cerevisiae [5] and in the test on Escherichia coli [6] was “inactive” throughout. Moreover, the “diameter of the inhibition zone (DIZ)” value with Candida albicans [7], in the test on Pseudomonas aeruginosa [8], with Staphylococcus aureus [9], with Pseudomonas aeruginosa [10], with Bacillus cereus [12] and with Bacillus cereus [13] was “inactive” in each case.

As for `N#CC1CCCN(c2ncc(-c3cccc(F)c3)c3[nH]c(CSc4ccccc4)nc23)C1` (stereo unspecified), the “diameter of the inhibition zone (DIZ)” value in the test with Saccharomyces cerevisiae [1], in the test on Candida albicans [2], with Staphylococcus aureus [3], in the test with Escherichia coli [4], in the test with Saccharomyces cerevisiae [5] and with Escherichia coli [6] was “inactive” throughout. Further, the “diameter of the inhibition zone (DIZ)” value in the test with Candida albicans [7], in the test on Staphylococcus aureus [9], in the test on Bacillus cereus [12] and in the test on Bacillus cereus [13] was “inactive” throughout. Moreover, the zone of inhibition at 500 µg/mL in the test on Pseudomonas aeruginosa [8] was found to be 5.2 mm. Besides, the zone of inhibition at 1000 µg/mL in the test on Pseudomonas aeruginosa [10] stood at 11 mm.
